Marks after values point to notes of the source that are not given here.
Key:
SK-OV-3/CBP = test: MTT viability assay in carboplatin-resistant SK-OV-3/CBP cells; format: cell-based, human; conditions: 72 h; for relative resistance (IC50 SK-OV-3/CBP divided by IC50 SK-OV-3): resistant subline vs parental line; for IC50: MTT, carboplatin-resistant subline, mean ± SD
Method: (§1) Cells were seeded (2 × 10^4 cells/well for HCT116, HCT116/OxR, 3 × 10^4 cells/well for HCT116 p53KO, 4 × 10^4 cells/well for MES-OV, SK-OV-3, and their respective CBP resistant counterparts) in 100 μL/well in 96-well plates and allowed to attach for 24 h at 37 °C and 5% CO2. Compounds were first dissolved in DMSO to a 10 mM stock solution and then further diluted in a growth medium (DMSO concentration <1%). After 24 h, cells were treated with 100 μL of different drugs dilutions in triplicates with the final concentrations of 0, 0.01, 0.05, 0.075, 0.1, 0.5, 0.75, 1, 2.5, 5, 7.5, and 10 μM depending on the compound and the cell line.

HCT116 WT/OxR = test: MTT viability assay in oxaliplatin-resistant HCT116 WT/OxR cells; format: cell-based, human; conditions: 72 h; for relative resistance (IC50 HCT116 WT/OxR divided by IC50 HCT116 WT): resistant subline vs parental line; for IC50: MTT, oxaliplatin-resistant subline, mean ± SD
Method: as §1

MES-OV/CBP = test: MTT viability assay in carboplatin-resistant MES-OV/CBP cells; format: cell-based, human; conditions: 72 h; for relative resistance (IC50 MES-OV/CBP divided by IC50 MES-OV): resistant subline vs parental line; for IC50: MTT, carboplatin-resistant subline, mean ± SD
Method: as §1

MES-OV cells [1] = test: Mitochondrial membrane potential by JC-1 stain (flow cytometry); format: cell-based, human; conditions: 24 h
Method: Cells were seeded in a density of (2–4) × 10^5 cells/well in six-well plates and in 1 mL culture medium containing 10% FBS. After 24 h recovery, cells were treated with the indicated compounds and concentrations. Next, the supernatant was collected followed by trypsinization of the cells and centrifugation at 300g for 5 min. In the following protocols, cells were stained with annexin V (AV) and propidium iodide (PI) for cell death analysis, with only PI for cell cycle analysis, or with 10 μg mL^–1 JC-1 for evaluation of the mitochondrial membrane potential as previously described.[54],[55]

MES-OV = test: MTT viability assay in MES-OV ovarian carcinoma cells; format: cell-based, human; conditions: for cancer cells killed at lowest tested concentration: MES-OV, 0.05 μM; for cancer cells killed at lowest tested concentration / IC50: 72 h; for IC50: MTT, mean ± SD
Method: as §1

MES-OV cells [2] = test: TEM analysis of subcellular morphology; format: cell-based, human; conditions: 24 h treatment
Method: MES-OV Cells were seeded (8 × 10^5 cells/mL) in […] in six-well plates. After 24 h, cells were treated with the selected compounds at the indicated concentration for another 24 h. Afterward, cells were collected, pelleted, and fixed in a solution of 2.5% glutaraldehyde and 2% paraformaldehyde in 0.1 M cacodylate buffer (pH 7.4) for 2 h at room temperature. Samples were subsequently washed 3 × 10 min in cacodylate buffer and postfixed in 1% osmium tetroxide for 1 h. After 3 × 10 min washing in cacodylate buffer, samples were dehydrated in an ethanol series (30–100%, 10 min each) and pure acetone (2 × 10 min) and gradually embedded in Epon 812 resin (Serva). Sections (40–50 nm) were prepared with a Leica UC7 ultramicrotome, mounted on copper mesh grids, and contrasted with 1% uranyl acetate (7 min) and 3% lead citrate (3 min). Imaging was performed with a Tecnai G2 20 transmission electron microscope at 80 kV equipped with an FEI Eagle 4K CCD camera (Center for Anatomy and Cell Biology). Image processing was performed in Fiji[57] using the CLAHE filter (enhance local contrast).

MES-OV cells [3] = test: Phase-contrast microscopy of cytoplasmic vacuoles; format: cell-based, human; conditions: 6 and 24 h treatment
Method: Cells were seeded 5 × 10^5/well in six-well plates after 24 h recovery treatment with compounds 1, 4, and 7 was performed with the indicated concentrations. After 6 and 24 h, phase-contrast images of the cells were taken with a Zeiss Primovert microscope (20× magnification). To determinate the percentage of vacuolated cells, images (three images each condition) were analyzed by ImageJ, and vacuolated cells were counted.

MES-OV cells [4] = test: ROS detection by DCF-DA flow cytometry in MES-OV; format: cell-based, human; conditions: 24 h, 2.5 μM
Method: Cells were seeded 5 × 10^5 cells/mL in six-well plates. After 24 h treatment with the indicated concentration, cells were incubated with 10 μM 2′,7′-dichlorofluorescein diacetate (DCFH-DA, Sigma-Aldrich) in Hank’s balanced salt solution for 1 h at 37 °C. Subsequently, flow cytometry (with BD LSR Fortessa instrument, BD Biosciences, Franklin Lakes, NJ, USA) was performed to measure the median fluorescence signal of 20,000 single cells per sample. FlowJo (BD Biosciences, San Jose, CA, USA) and GraphPad Prism software (GraphPad Software Inc., San Diego, CA, USA) were to analyze the data.

[5] = Stability in PBS by LC-ESI(+)-HRMS/MS; format: physicochemical; conditions: 80 μM in PBS, monitored 48 h
Method: For the stability evaluation in PBS, 10 mM solutions of complexes 1, 4, and 7 were first prepared in DMSO. Two microliters of this solution were then added to PBS (250 μL) for a total concentration of 80 μM. Following centrifugation for 10 min at 3000 rpm, the resulting solutions were monitored by LC-ESI(+)-MS and LC-ESI(+)-HRMS for a period of 48 h.

recombinant rat TrxR = target: T1, recombinant rat TrxR (Rattus norvegicus, UniProt O89049); test: Inhibition of mammalian TrxR (microplate reader-based DTNB assay); format: biochemical; conditions: cell-free assay
T1 construct: purchased Cayman Chemical
T1 sequence (O89049 1-499): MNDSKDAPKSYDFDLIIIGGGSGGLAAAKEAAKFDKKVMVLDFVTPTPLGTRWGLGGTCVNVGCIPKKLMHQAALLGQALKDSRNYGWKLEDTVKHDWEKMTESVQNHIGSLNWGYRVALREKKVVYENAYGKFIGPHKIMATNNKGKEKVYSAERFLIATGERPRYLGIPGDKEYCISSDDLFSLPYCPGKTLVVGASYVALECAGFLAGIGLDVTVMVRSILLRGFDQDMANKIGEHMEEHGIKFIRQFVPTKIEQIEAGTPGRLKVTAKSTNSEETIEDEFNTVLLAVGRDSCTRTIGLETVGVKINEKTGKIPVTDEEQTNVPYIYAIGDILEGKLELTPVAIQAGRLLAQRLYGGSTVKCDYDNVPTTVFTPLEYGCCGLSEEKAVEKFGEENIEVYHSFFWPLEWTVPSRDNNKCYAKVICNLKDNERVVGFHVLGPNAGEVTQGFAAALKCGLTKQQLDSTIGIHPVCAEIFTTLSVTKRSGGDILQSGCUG
Method: To determine the inhibition of mammalian TrxR, an established microplate reader-based assay was performed. For this purpose, commercially available recombinant rat TrxR (from Cayman Chemical) was used and diluted with distilled water to achieve a concentration of 0.12 U mL^–1. The compounds were freshly dissolved as stock solutions in DMSO. Aliquots (25 μL) of the enzyme solution and 25 μL of potassium phosphate buffer (pH 7.0) containing the compounds in graded concentrations (1% DMSO) were mixed. Positive controls were composed of 25 μL aliquots of the enzyme solution mixed with 25 μL 1% DMSO in buffer solution (no compounds). The final concentration of DMSO was 0.5% v/v in all samples. The blank solution was the highest used concentration of the compound in 0.5% DMSO in buffer solution (no enzyme). All resulting solutions were incubated with moderate shaking for 75 min at 37 °C in a 96-well plate. […] After proper mixing, the formation of 2-nitro-5-thiobenzoate (5-TNB) was monitored with a microplate reader at 405 nm 10 times in 35 s intervals for about 6 min. The increase in 5-TNB concentration over time followed a linear trend, and the enzymatic activities were calculated as the slopes (increase in absorbance per second) thereof. […] For the absorption measurements in the enzyme assay, a PerkinElmer 2030 Multilabel Reader VICTORTMX4 was used.

SK-OV-3 = test: MTT viability assay in SK-OV-3 ovarian carcinoma cells; format: cell-based, human; conditions: 72 h, mean ± SD of three independent experiments
Method: as §1

HCT116 WT = test: MTT viability assay in HCT116 WT colon carcinoma cells; format: cell-based, human; conditions: 72 h, mean ± SD
Method: as §1

HCT116 p53KO = test: MTT viability assay in p53-deleted HCT116 p53KO cells; format: cell-based, human; conditions: 72 h, p53-deleted subclone, mean ± SD
Method: as §1

F331 = test: MTT viability assay in nonmalignant fibroblasts F331; format: cell-based, human; conditions: 72 h, mean ± SD

| Molecule | relative resistance (IC50 SK-OV-3/CBP divided by IC50 SK-OV-3) (SK-OV-3/CBP) | relative resistance (IC50 HCT116 WT/OxR divided by IC50 HCT116 WT) (HCT116 WT/OxR) | IC50 (MES-OV/CBP) [nM] | IC50 (SK-OV-3) [nM] | IC50 (MES-OV) [nM] | IC50 (SK-OV-3/CBP) [nM] | IC50 (HCT116 WT) [nM] | IC50 (HCT116 WT/OxR) [nM] | IC50 (HCT116 p53KO) [nM] | IC50 (F331) [nM] | further results |
| --- | --- | --- | --- | --- | --- | --- | --- | --- | --- | --- | --- |
| Cc1ccnc(-c2cc(C)ccn2)c1.O=S(=O)([O-])C(F)(F)F.[Ag+].c1ccc(P(c2ccccc2)c2ccccc2)cc1 [Compound 2, [Ag(4,4′-CH3-2,2′-bipy)(PPh3)][CF3SO3]] | 1.5^n.s. | 0.9^n.s. | – | – | – | – | – | – | – | – | – |
| O=S(=O)([O-])C(F)(F)F.OCc1ccnc(-c2cc(CO)ccn2)c1.[Ag+].c1ccc(P(c2ccccc2)c2ccccc2)cc1 [Compound 3, [Ag(4,4′-CH2OH-2,2′-bipy)(PPh3)][CF3SO3]] | 1.4^n.s. | 0.7^n.s. | – | – | – | – | – | – | – | – | relative resistance (IC50 MES-OV/CBP divided by IC50 MES-OV) (MES-OV/CBP): 0.8^n.s. |
| O=S(=O)([O-])C(F)(F)F.[Ag+].c1ccc(-c2ccccn2)nc1.c1ccc(P(CCP(c2ccccc2)c2ccccc2)c2ccccc2)cc1 [Compound 4, [Ag(2,2′-bipy)(dppe)][CF3SO3]] | 0.8^n.s. | 0.9^n.s. | – | – | – | – | – | – | – | – | cells with mitochondrial depolarization (low Δψ fraction) (MES-OV cells [1]; 10 μM): 50%; cancer cells killed at lowest tested concentration (MES-OV): more than 50%; vacuole diameter (TEM) (MES-OV cells [2]): 300–1500 nm; cytoplasmic vacuole formation (phase contrast) (MES-OV cells [3]): induced pronounced cytoplasmic vacuoles only after 24 h incubation; ROS levels increase (peak) (MES-OV cells [4]): ~5 fold; stability in PBS [5]: immediate rearrangement of the ligands to afford a mixture between AgP2 and AgN2 species; TrxR inhibition strength relative to 7 (recombinant rat TrxR): 10 fold |
| N.N.O=C([O-])C1(C(=O)[O-])CCC1.[Pt+2] [carboplatin, reference compound] | 1.6* | – | 94700 ± 9240 | 56500 ± 15400 | 44300 ± 7090 | 89900 ± 5640 | – | – | – | – | – |
| O=C1[O][Pt]2([NH][C@@H]3CCCC[C@H]3[NH]2)[O]C1=O [oxaliplatin, reference compound] | – | >14** | – | – | – | – | 720 ± 180 | > 10000 | 2370 ± 450 | – | – |
| [Ag(4,4′-CH2OH-2,2′-bipy)(dppe)][CF3SO3] [Compound 6] | 0.8^n.s. | 0.8^n.s. | < 50 | 6500 ± 1660 | < 50 | 5520 ± 2200 | 640 ± 60 | 540 ± 110 | 490 ± 140 | > 10000 | cancer cells killed at lowest tested concentration (MES-OV): more than 50% |
| [Ag(4,4′-CH3-2,2′-bipy)(dppe)][CF3SO3] [Compound 5] | 0.9^n.s. | 1.0^n.s. | 60 ± 30 | 6860 ± 1550 | 60 ± 30 | 6500 ± 1290 | 740 ± 60 | 750 ± 80 | 430 ± 50 | 8520 ± 900 | relative resistance (IC50 MES-OV/CBP divided by IC50 MES-OV) (MES-OV/CBP): 1.0^n.s. |
| [Ag(dppe)2][CF3SO3] [Compound 7] | – | 1.1^n.s. | 50 ± 20 | – | < 50 | 5970 ± 1420 | 350 ± 40 | 380 ± 50 | 340 ± 10 | 5780 ± 500 | cells with mitochondrial depolarization (low Δψ fraction) (MES-OV cells [1]; 1 μM): 30%; cells with mitochondrial depolarization (low Δψ fraction) (MES-OV cells [1]; 10 μM): 90%; activity relative to 4 after 24 h (MES-OV; 24 h MTT (Table S2)): about twofold more active than 4; diameter of big vacuoles (TEM) (MES-OV cells [2]): up to 7.5 μm; cytoplasmic vacuole formation (phase contrast) (MES-OV cells [3]): formation of cytoplasmic vacuoles near the nucleus within the cytoplasm was observed; ROS levels increase (peak) (MES-OV cells [4]): ~5 fold; stability in PBS [5]: stable under these conditions |

— publication PMC11056982, “Paraptotic Cell Death as an Unprecedented Mode of Action Observed for New Bipyridine-Silver(I) Compounds Bearing Phosphane Coligands” (Journal of Medicinal Chemistry, 2024)
